Measured values reported in PMC9103351, “Effects of the Bark Resin Extract of Garcinia nigrolineata on Chronic Stress-Induced Memory Deficit in Mice Model and the In Vitro Monoamine Oxidases and β-Amyloid Aggregation Inhibitory Activities of Its Prenylated Xanthone Constituents” (Molecules, 2022).
Where two headings read alike, the source gives them in different places.

Tests used:
[1] = target: T1, recombinant human MAO-B (Homo sapiens, UniProt P27338); assay: Inhibitory activity on recombinant human MAO-B (kynuramine, fluorescence); assay type: biochemical; settings: for isoenzyme selectivity by selectivity index (MAO-B): from Si values; for IC50: recombinant human MAO-B, kynuramine substrate
T1 construct: purchased Sigma-Aldrich
T1 sequence (P27338 1-520): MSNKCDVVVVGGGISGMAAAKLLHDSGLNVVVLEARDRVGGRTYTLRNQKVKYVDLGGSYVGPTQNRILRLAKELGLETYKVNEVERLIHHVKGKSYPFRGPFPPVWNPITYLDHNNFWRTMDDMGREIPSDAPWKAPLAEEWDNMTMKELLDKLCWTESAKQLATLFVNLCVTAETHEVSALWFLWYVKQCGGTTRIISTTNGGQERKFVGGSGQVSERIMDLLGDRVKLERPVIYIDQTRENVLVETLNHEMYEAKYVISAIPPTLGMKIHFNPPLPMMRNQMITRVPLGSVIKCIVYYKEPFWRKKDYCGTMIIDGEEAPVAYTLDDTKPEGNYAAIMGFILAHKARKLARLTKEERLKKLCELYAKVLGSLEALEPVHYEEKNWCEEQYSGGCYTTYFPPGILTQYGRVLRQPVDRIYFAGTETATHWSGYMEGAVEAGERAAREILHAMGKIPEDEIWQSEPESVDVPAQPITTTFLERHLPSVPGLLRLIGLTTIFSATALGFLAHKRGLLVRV
Method: (§1) The inhibitory activity assays of the isolated compound with recombinant human MAO-A and MAO-B (Sigma-Aldrich, St. Louis, MO, USA) were carried out with some modification as described recently by. In brief, 1–6 and 8–10 were first dissolved in DMSO to obtain a stock solution with a concentration of 25 mM. The activity was determined by serial dilution of each concentration of the compounds. For the MAO-A inhibitor assay, 4.5 µL of kynuramine (Sigma-Aldrich, St. Louis, MO, USA) were mixed with 234.75 µL of potassium phosphate buffer (100 mM, pH 7.4, made isotonic with KCl, 20.2 mM). Then, 3 µL of kynuramine were mixed with 236.25 µL of potassium phosphate buffer (pH 7.4) for the MAO-B inhibitor assay. The reaction was stopped by adding 400 µL of 2N NaOH and 1000 µL of water. The fluorescence of 4-hydroxyquinoline (Sigma-Aldrich, St. Louis, MO, USA), a by-product of this reaction, was measured with the excitation wavelength at 310 nm and the emission wavelength at 400 nm. The initial rates of MAO-catalyzed kynuramine oxidation were plotted versus the logarithm of the inhibitor concentrations and reported as IC50 values by using the Prism software package (GraphPad Software, version 5, San Diego, CA, USA) to evaluate quantitative. IC50 values were converted to Ki values by using the equation Ki = IC50/(1 + [S]/Km).

[2] = target: T2, recombinant human MAO-A (Homo sapiens, UniProt P21397); assay: Inhibitory activity on recombinant human MAO-A (kynuramine, fluorescence); assay type: biochemical; settings: for Si MAO-A: selective index from Ki values (Ki = IC50/(1 + [S]/Km)), Si = Ki (MAO-B)/Ki (MAO-A)
T2 construct: purchased Sigma-Aldrich
T2 sequence (P21397 1-527): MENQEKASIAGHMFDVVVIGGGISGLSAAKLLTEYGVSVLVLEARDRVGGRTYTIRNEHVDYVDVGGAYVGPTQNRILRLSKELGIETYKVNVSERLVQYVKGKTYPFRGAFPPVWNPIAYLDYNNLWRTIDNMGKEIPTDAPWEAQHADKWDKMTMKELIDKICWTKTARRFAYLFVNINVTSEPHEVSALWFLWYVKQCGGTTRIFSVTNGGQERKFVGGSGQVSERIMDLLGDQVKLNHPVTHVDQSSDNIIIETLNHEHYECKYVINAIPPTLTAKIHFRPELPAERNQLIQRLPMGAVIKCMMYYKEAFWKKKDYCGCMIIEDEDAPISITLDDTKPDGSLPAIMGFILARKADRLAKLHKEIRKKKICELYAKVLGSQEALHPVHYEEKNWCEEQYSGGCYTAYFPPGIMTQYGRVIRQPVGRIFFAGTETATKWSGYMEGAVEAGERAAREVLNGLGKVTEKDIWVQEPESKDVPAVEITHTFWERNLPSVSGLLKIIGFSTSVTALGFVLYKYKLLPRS
Method: as §1

[3] = target: T3, Aβ1-42 (Homo sapiens, UniProt P05067); assay: Thioflavin-T assay of Aβ1-42 self-aggregation inhibition; assay type: biochemical; settings: for % Inhibition of Aβ Aggregation: Aβ1-42 10 µM, 24 h at 37 °C, Th-T fluorescence; for percent of self-aggregation of Aβ-(1-42): without any compound taken as 100%
T3 construct: Aβ1-42 was dissolved in a 50 mM phosphate buffer (pH 7.4)
T3 sequence (P05067 672-713 limits assumed): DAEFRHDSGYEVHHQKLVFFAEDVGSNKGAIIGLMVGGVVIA
Method: A thioflavin-T (Th-T) assay was used to evaluate the ability of 1–6 and 8–10, isolated from GN bark resin extract, to inhibit Aβ42 aggregation. The presence of Aβ plaques in the brain appears to be related to cognitive decline and neurodegeneration.
The Thioflavin-T assay used to investigate the Aβ1-42 self-aggregation activity was performed as previously described. Aβ1-42 was dissolved in a 50 mM phosphate buffer (pH 7.4) to obtain a […] stock solution. […] In black and opaque 96-well plates, 2 µL of each compound were added at a concentration of 100 µM. Then, in each well, Aβ1-42 solution was added to give a final concentration of 10 µM and mixed thoroughly. Covered plates were left in the dark for 24 h at 37 °C without agitation. After incubation, each well was loaded with 190 µL of […] ThT in 50 mM glycine/NaOH buffer (pH 8.0), and fluorescence intensities were measured at 446 nm and 490 nm for excitation and emission, respectively. The percent inhibition of each compound was calculated and reported.

[4] = system: Aβ (1-42); parameters: method as in PMID 27038926; settings: Aβ (1-42) incubated with compound 6 days at 37 °C; cited from earlier work
[5] = selective index from Ki values (Ki = IC50/(1 + [S]/Km)), Si = Ki (MAO-B)/Ki (MAO-A)
[6] = recombinant human MAO-A, kynuramine substrate, read-out: IC50 MAO-A

Row | isoenzyme selectivity by selectivity index (MAO-B) [1] | IC50 [1] | Si MAO-B [1, 5] | IC50 [2, 6] | Si MAO-A [2] | % Inhibition of Aβ Aggregation ([3]; compound 100 µM) | percent of self-aggregation of Aβ-(1-42) ([3]; compound 100 µM) | % Inhibition of Aβ Aggregation ([3]; positive control at 5 µM) | percent of self-aggregation of Aβ-(1-42) ([3]; positive control at 5 µM) | Compound | amyloid aggregation inhibition [4] | Si MAO-B [1] | IC50 [2]
1 | selectivity index on MAO-B | 17.99 ± 0.11 µM | 0.294 | 100.2 ± 0.35 µM | 3.407 | 46.79 ± 5.46% | 53.21 ± 5.46% |  |  | COc1cc2oc3c(OC)c(O)ccc3c(=O)c2c(O)c1CC=C(C)C [Compound 1, cowagarcinone C] |  |  | 
2 |  | 238.5 ± 2.03 µM | 3.254 | 119.8 ± 0.75 µM | 0.307 | 58.56 ± 3.28% | 41.44 ± 3.28% |  |  | COc1cc2c(=O)c3c(O)c(C/C=C(\C)CCC=C(C)C)c(O)cc3oc2cc1O [Compound 2, cowaxanthone] |  |  | 
3 | selectivity index on MAO-B | 15.6 ± 0.26 µM | 0.6333 | 40.21 ± 0.35 µM | 1.579 | Not detected |  |  |  | COc1cc2oc3cc(O)c(CC=C(C)C)c(O)c3c(=O)c2c(CC=C(C)C)c1OC [Compound 4, cowaxanthone B] |  |  | 
4 | selectivity index on MAO-B | 0.07 ± 0.01 µM | 0.00179 | 69.92 ± 0.06 µM | 558.273 | Not detected |  |  |  | COc1c(O)cc2oc3cc4c(c(O)c3c(=O)c2c1C/C=C(\C)CCC=C(C)C)C=CC(C)(C)O4 [Compound 6, fuscaxanthone A] |  |  | 
5 |  | > 400 µM | 0.6522 | 100.5 ± 0.44 µM | <0.153 | Not detected. |  |  |  | COc1c(O)cc2oc3cc4occc4c(O)c3c(=O)c2c1C/C=C(\C)CCC=C(C)C [Compound 8, xanthochymusxanthone A] |  |  | 
6 | selectivity index on MAO-B | 0.4 ± 0.01 µM | 0.0256 | 25.4 ± 0.63 µM | 38.705 | Not detected |  |  |  | COc1c(O)c(CC=C(C)C)c2oc3cc(O)c(CC=C(C)C)c(O)c3c(=O)c2c1CC=C(C)C [Compound 9, 7-O-methylgarcinone E] |  |  | 
7 |  | > 400 µM | 183.168 | 3.58 ± 0.02 µM | <0.005 | Not detected |  |  |  | COc1c(O)c(CC=C(C)C)c2oc3cc(O)c(CC=C(C)C)c(O)c3c(=O)c2c1C/C=C(\C)CCC=C(C)C [Compound 10, cowagarcinone A] |  |  | 
8 |  |  |  |  |  |  |  | 51.73 ± 2.89% | 48.27 ± 2.89% | COc1cc(/C=C/C(=O)CC(=O)/C=C/c2ccc(O)c(OC)c2)ccc1O [Curcumin, reference compound] |  |  | 

Row | Compound | isoenzyme selectivity by selectivity index (MAO-B) [1] | IC50 [1] | Si MAO-B [1, 5] | IC50 [2, 6] | Si MAO-A [2] | % Inhibition of Aβ Aggregation ([3]; compound 100 µM) | percent of self-aggregation of Aβ-(1-42) ([3]; compound 100 µM) | % Inhibition of Aβ Aggregation ([3]; positive control at 5 µM) | percent of self-aggregation of Aβ-(1-42) ([3]; positive control at 5 µM) | amyloid aggregation inhibition [4] | Si MAO-B [1] | IC50 [2]
9 | COc1c(O)cc2oc3cc(O)c(CC=C(C)C)c(O)c3c(=O)c2c1CC=C(C)C [Compound 3, α-mangostin] | selectivity index on MAO-B | 40.1 ± 0.89 µM | 0.821 | 79.81 ± 0.5 µM | 1.218 | Not detected |  |  |  | inhibiting amyloid aggregation |  | 
10 | COc1c(O)cc2oc3cc(O)c(CC=C(C)C)c(O)c3c(=O)c2c1C/C=C(\C)CCC=C(C)C [Compound 5, cowanin] |  | 16.3 ± 1.44 µM |  |  | 0.266 | Not detected |  |  |  |  | 3.762 | 7.1 ± 0.03 µM
